The record followed here is ChEMBL document CHEMBL1132667, “P2-achiral, P'-extended alpha-ketoamide inhibitors of calpain I” (Bioorg Med Chem Lett, 1999).

Molecules are shown by their SMILES.

For orientation: Ki means the dissociation constant of the complex between target and ligand, obtained from inhibition or displacement.

One experiment concerns the target T1, Calpain-1 catalytic subunit (Homo sapiens, UniProt P07384).
T1 sequence (P07384 whole entry): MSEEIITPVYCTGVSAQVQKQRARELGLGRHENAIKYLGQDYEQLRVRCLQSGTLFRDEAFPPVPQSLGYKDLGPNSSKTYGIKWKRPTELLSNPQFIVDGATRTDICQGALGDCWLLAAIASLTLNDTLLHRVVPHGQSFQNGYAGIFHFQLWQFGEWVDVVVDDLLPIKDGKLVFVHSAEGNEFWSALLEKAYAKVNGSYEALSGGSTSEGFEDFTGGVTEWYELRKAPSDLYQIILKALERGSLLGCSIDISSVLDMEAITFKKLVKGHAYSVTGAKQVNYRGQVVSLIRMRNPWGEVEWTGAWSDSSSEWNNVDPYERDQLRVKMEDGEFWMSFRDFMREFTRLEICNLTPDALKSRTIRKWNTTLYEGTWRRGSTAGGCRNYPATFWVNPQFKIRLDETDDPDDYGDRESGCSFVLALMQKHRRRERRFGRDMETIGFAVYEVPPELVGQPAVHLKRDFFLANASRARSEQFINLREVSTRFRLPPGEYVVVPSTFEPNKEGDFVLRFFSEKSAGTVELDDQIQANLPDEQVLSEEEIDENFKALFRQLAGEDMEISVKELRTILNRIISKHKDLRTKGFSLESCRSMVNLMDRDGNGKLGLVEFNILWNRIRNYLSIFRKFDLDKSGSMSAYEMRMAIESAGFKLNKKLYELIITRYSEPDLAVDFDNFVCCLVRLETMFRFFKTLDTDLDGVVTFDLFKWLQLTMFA
Description: Inhibitory activity against recombinant human Calpain 1.
For `O=C(CCCc1ccccc1)N[C@@H](Cc1ccccc1)C(=O)C(=O)NCCNS(=O)(=O)c1ccc(-c2ccccn2)s1`, the Ki was determined as 1100 nM. For the compound `CC(C)CC(=O)N[C@@H](Cc1ccccc1)C(=O)C(=O)NCCNS(=O)(=O)c1ccc(-c2ccccn2)s1`, the inhibitory constant (Ki) came out at 420 nM.

On to `O=C(NCCNS(=O)(=O)c1ccc(-c2cccc(CN3CCOCC3)c2)s1)C(=O)[C@H](Cc1ccccc1)NC(=O)c1c(Cl)cccc1Cl`, for which the inhibition constant Ki was determined as 21 nM. Consider `CC(C)CCC(=O)N[C@@H](Cc1ccccc1)C(=O)C(=O)NCCNS(=O)(=O)c1ccc(-c2ccccn2)s1`, for which the Ki worked out at 21 nM.

As to `CC(C)C(=O)N[C@@H](Cc1ccccc1)C(=O)C(=O)NCCNS(=O)(=O)c1ccc(-c2ccccn2)s1`, the Ki stood at 1100 nM. Still for that read-out and setting: with `O=C(Cc1ccc(Cl)nc1Cl)N[C@@H](Cc1ccccc1)C(=O)C(=O)NCCNS(=O)(=O)c1ccc(-c2ccccn2)s1` the figure was 57 nM.

A further experiment concerns the target T1, Calpain-1 catalytic subunit. Nature of the experiment: Inhibitory activity against recombinant human calpain I.
As for `N#Cc1cccc(-c2ccc(S(=O)(=O)NCCNC(=O)C(=O)[C@H](Cc3ccccc3)NC(=O)c3c(Cl)cccc3Cl)s2)c1`, the Ki amounted to 8 nM. Consider `O=C(NCCNS(=O)(=O)c1ccc(-c2ccccn2)s1)C(=O)[C@H](Cc1ccccc1)NC(=O)c1cc(Cl)ccc1Cl`, for which the inhibition constant Ki was determined as 49 nM.

For `CC(=O)N1CCN(Cc2ccc(S(=O)(=O)NCCNC(=O)C(=O)[C@H](Cc3ccccc3)NC(=O)c3c(Cl)cccc3Cl)cc2)CC1`, the Ki was 71 nM. In the case of `O=C(NCCNS(=O)(=O)c1ccc(-c2ccccn2)s1)C(=O)[C@H](Cc1ccccc1)NC(=O)c1c(Cl)cccc1Cl`, the Ki turned out to be 26 nM. As to `CC(=O)NCc1cccc(-c2ccc(S(=O)(=O)NCCNC(=O)C(=O)[C@H](Cc3ccccc3)NC(=O)c3c(Cl)cccc3Cl)s2)c1`, the inhibition constant Ki is 14 nM. On the same count and under the same terms, with `O=C(NCCNS(=O)(=O)c1ccc(CN2CCN(c3ccccn3)CC2)cc1)C(=O)[C@H](Cc1ccccc1)NC(=O)c1c(Cl)cccc1Cl` the figure was 59 nM. With `O=Cc1cccc(-c2ccc(S(=O)(=O)NCCNC(=O)C(=O)[C@H](Cc3ccccc3)NC(=O)c3c(Cl)cccc3Cl)s2)c1`, the Ki was 15 nM.

Regarding `COc1ccc(Cl)c(C(=O)N[C@@H](Cc2ccccc2)C(=O)C(=O)NCCNS(=O)(=O)c2ccc(-c3ccccn3)s2)c1`, the Ki was 46 nM. Turning to `O=C(N[C@@H](Cc1ccccc1)C(=O)O)c1c(Cl)cccc1Cl`, the Ki is approximately 360 nM. On the same count and under the same terms, the same measure for `O=C(NCCNS(=O)(=O)c1ccc(-c2ccccn2)s1)C(=O)[C@H](Cc1ccccc1)NC(=O)c1cc(C(F)(F)F)cc(C(F)(F)F)c1`: 430 nM; for `Cc1cccc(C)c1C(=O)N[C@@H](Cc1ccccc1)C(=O)C(=O)NCCNS(=O)(=O)c1ccc(-c2ccccn2)s1`: 130 nM; for `O=C(NCCNS(=O)(=O)c1ccc(-c2ccccn2)s1)C(=O)[C@H](Cc1ccccc1)NC(=O)c1ccccc1`: 570 nM.

On to `CC(CCC(=O)N[C@@H](Cc1ccccc1)C(=O)C(=O)NCCNS(=O)(=O)c1ccc(-c2ccccn2)s1)c1ccccc1` (some centres not stated), for which the Ki was 62 nM. For `CS(=O)(=O)N[C@H](COCc1ccccc1)C(=O)N[C@@H](Cc1ccccc1)C(=O)C(=O)NCCNS(=O)(=O)c1ccc(-c2ccccn2)s1`, the Ki worked out at 10 nM. Still for that read-out and setting: the same measure for `O=C(NCCNS(=O)(=O)c1ccc(-c2ccccn2)s1)C(=O)[C@H](Cc1ccccc1)NC(=O)c1c(F)cccc1F`: 14 nM.

Regarding `O=C(NCCNS(=O)(=O)c1ccc(-c2ccccn2)s1)C(=O)[C@H](Cc1ccccc1)NC(=O)c1ccc2c(c1)OCO2`, the inhibition constant Ki was more than 1000 nM.
